# Patent US20100003346A1, “COMBINATION METHODS OF TREATING CANCER” (priority 2006, published 2010)
# Where two headings read alike, the source gives them in different places.
# Tests used:
# [1] = tested on: BCL1 murine B cell leukemia; experiment: Cytotoxicity assay (MTS, CellTiter 96) in freshly extracted BCL1 cells; details: for IC50: Mus musculus; for Interaction of MJ with drug (cytotoxicity vs expected additivity): BCL1; for Cooperative effect of combination of MJ and chemotherapeutic drug: BCL1 cells, drug combined with fixed concentration of MJ (0.1 mM), cooperative = pV<0.05 vs expected additivity
# Description: (§1) CT26 is a murine colon carcinoma. DA-3 is a murine mammary adenocarcinoma. TRAMP C1 is a murine prostate adenocarcinoma. MCF7 is a human breast adenocarcinoma. M IA PaCa-2 is a human pancreatic carcinoma. D122 is a murine lung carcinoma. BCL1 is a murine B cell leukemia. All cell lines were purchased from ATCC (Rockville, Md., USA), except for DA3 and D122 which were kindly provided by Prof. Y. Keisari (Tel-Aviv University, Israel).
# (§2) MCF7, MIA PaCa-2 and BCL1 cells were maintained in RPMI-1640 medium (Biological Industries, Israel) supplemented with 10% FCS, 2 mM L-glutamine, 100 U ml^−1 penicillin and 100 μg ml^−1 streptomycin.
# BCL1 cells, which are unable to grow continuously in culture, were maintained in BALB/c mice. Blood was taken from the tail vein of BCL1-bearing mice on day 23-28 post inoculation, and depleted of red blood cells (RBC) using RBC lysis buffer (Sigma-Aldrich). The purified leukemic cells were used for in vitro and in vivo experiments.
# (§3) All cells (except for BCL1) were plated into 96-well microtiter plates (Corning) at a density of 2*10^3 cells per well and were allowed to adhere prior to treatment. BCL1 cells were seeded at a density of 20*10^4 cells per well. The cells were exposed to MJ, cytotoxic drugs, 2DG or their combinations at different concentrations for 24 hours. Cytotoxic drugs and 2DG were added 1 h prior to MJ addition.
# (§4) Inhibition of cell proliferation was determined by the CellTiter 96 Aqueous Non-Radioactive Cell Proliferation Assay (Promega, Madison, Wis., USA). Upon completion of a given experiment, 20 μl of a mixture (20:1) of MTS (a tetrazolium compound, at a final concentration of 333 μg/ml)+phenazine methosulfate (at a final concentration of 25 μM) were added to each well of the 96-well plate for 1 h at 37° C. This allowed for the development of the reaction in which dehydrogenases reduce the MTS in metabolically active cells. […] Soluble MTS formazan product at wavelength 490 nm was measured with the CERES 900 HDi ELISA reader (Bio-Tek Instruments, Highland Park, Vt., USA). Optical density is directly proportional to the number of living cells in culture. Cytotoxicity (%) was calculated in the following way: [(absorbance of control cells−absorbance of drug-treated cells)/absorbance of control cells]×100.
# [2] = mouse, in vivo
# Experimental: (§5) 2×10^4 BCL1 cells, freshly extracted from BCL1 leukemia bearing BALB/c mice, were inoculated intraperitoneally (i.p.) into mice in 100 μl PBS to produce tumor growth. Methyl jasmonate at 60 mg/kg was administered to animals 5 times a week, daily, for 4 weeks, starting one day after cell inoculation. […] MJ was dissolved in a lipid formulation, Lipofundin (B. Braun Melsungen, Melsungen, Germany). The adriamycin was given to mice twice, on days 7 and 14, at 4 mg/kg, i.p. Control mice were treated with the vehicle alone. The survival of mice was monitored daily.
# [3] = tested on: TRAMP C1 murine prostate adenocarcinoma; experiment: Cytotoxicity assay (MTS, CellTiter 96) in TRAMP C1 cells; format: cell-based; details: for IC50: Mus musculus; for IC50 / Cooperative effect of combination of MJ and chemotherapeutic drug: TRAMP C1 cells; for Cooperative effect of combination of MJ and chemotherapeutic drug: drug combined with fixed concentration of MJ, cooperative = pV<0.05 vs expected additivity
# Experimental: as §1
# TRAMP C1 cells were grown in Dulbecco's modified Eagle's medium supplemented with 10% FCS, 2 mM L-glutamine, 100 U ml^−1 penicillin, 100 μg ml^−1 streptomycin, 1 mM sodium pyruvate, 1:100 dilution of nonessential amino acids, 5 μg/ml bovine insulin and 10 nM dehydroisoandrosterone.
# as §3, §4
# [4] = tested on: CT26 murine colon carcinoma; experiment: Cytotoxicity assay (MTS, CellTiter 96) in CT26 cells; format: cell-based
# Experimental: as §1
# The cells were maintained in a humidified atmosphere, at 37° C. with 5% CO2. CT26 and DA-3 cells were maintained in Dulbecco's modified Eagle's medium (Biological Industries, Beit-Haemek, Israel), supplemented with 10% FCS, 2 mM L-glutamine, 100 U ml^−1 penicillin, 100 μg ml^−1 streptomycin, 1 mM sodium pyruvate and 1:100 dilution of nonessential amino acids (all purchased from Biological Industries, Israel). […]
# Inhibition of cell proliferation was determined by the CellTiter 96 Aqueous Non-Radioactive Cell Proliferation Assay (Promega, Madison, Wis., USA). […] Soluble MTS formazan product at wavelength 490 nm was measured with the CERES 900 HDi ELISA reader (Bio-Tek Instruments, Highland Park, Vt., USA). […] Cytotoxicity (%) was calculated in the following way: [(absorbance of control cells−absorbance of drug-treated cells)/absorbance of control cells]×100.
# [5] = tested on: MIA PaCa-2 human pancreatic carcinoma; experiment: Cytotoxicity assay (MTS, CellTiter 96) in MIA PaCa-2 cells; details: for IC50: Homo sapiens; for Cooperative effect of combination of MJ and chemotherapeutic drug: MIA PaCA-2 cells, drug combined with fixed concentration of MJ, cooperative = pV<0.05 vs expected additivity
# Description: as §1, §2, §3, §4
# [6] = tested on: DA-3 murine mammary adenocarcinoma; experiment: Cytotoxicity assay (MTS, CellTiter 96) in DA-3 cells; details: for IC50: Mus musculus
# Experimental: as §1
# The cells were maintained in a humidified atmosphere, at 37° C. with 5% CO2. CT26 and DA-3 cells were maintained in Dulbecco's modified Eagle's medium (Biological Industries, Beit-Haemek, Israel), supplemented with 10% FCS, 2 mM L-glutamine, 100 U ml^−1 penicillin, 100 μg ml^−1 streptomycin, 1 mM sodium pyruvate and 1:100 dilution of nonessential amino acids (all purchased from Biological Industries, Israel).
# as §3, §4
# [7] = tested on: MCF7 human breast adenocarcinoma; experiment: Cytotoxicity assay (MTS, CellTiter 96) in MCF7 cells; format: cell-based
# Description: as §1, §2, §3, §4
# [8] = tested on: D122 murine lung carcinoma; experiment: Cytotoxicity assay (MTS, CellTiter 96) in D122 cells; details: for IC50: Mus musculus
# Experimental: as §1, §3, §4
# BCL1 leukemia = experiment: Survival of BCL1 leukemia-bearing mice; format: in vivo, BALB/c mice; details: MJ 60 mg/kg i.v. or adriamycin 4 mg/kg i.p. alone
# Experimental: Balb/c male mice (7-8 weeks old) were obtained from the breeding colony of Tel-Aviv University, Israel. Animal care and experimentation were carried out in accordance with Tel-Aviv University guidelines and approved by the institutional animal use and care committee. Mice were kept in cages under standard food and housing conditions during the experiments.
# as §5
# Statistical significance in in vitro experiments was assessed using the two-tailed Student's t-test. P<0.05 was considered statistically significant. The survival curves (Kaplan-Meier test) and statistical analysis (Mantel-Cox test) were carried out using Statistical software.
# Since adriamycin is used for treatment of leukemia, it was chosen for an experiment assessing a combination with MJ in vivo. […]
# [9] = drug at other concentrations + 0.1 mM MJ
smiles,measurement,setting,value
"CC/C=C\CC1C(=O)CCC1CC(=O)OC (stereo not shown) [MJ, methyl 3-oxo-2-(2-pentenyl)cyclopentaneacetic acid]",IC50,"[1]; BCL1, 24 h, read-out: IC50 of MJ",560 ± 90 µM
same,IC50,"[1]; BCL1, read-out: IC50 of MJ",560 µM
same,Tolerability of MJ dose,[2],well tolerated
same,IC50,"[3]; 24 h exposure, read-out: IC50 of MJ",2940 ± 130 µM
same,IC50,"[4]; Mus musculus, CT26 cells, 24 h exposure",2590 ± 120 µM
same,IC50,"[5]; MIA PaCa-2, 24 h, read-out: IC50 of MJ",1460 ± 130 µM
same,IC50,"[6]; DA-3, 24 h, read-out: IC50 of MJ",1910 ± 80 µM
same,IC50,"[7]; Homo sapiens, MCF7 cells, 24 h exposure",1490 ± 60 µM
same,IC50,"[8]; 24 h, read-out: IC50 of MJ",1220 ± 60 µM
COc1cccc2c1C(=O)c1c(O)c3c(c(O)c1C2=O)C[C@@](O)(C(=O)CO)C[C@@H]3O[C@H]1C[C@H](N)[C@H](O)[C@H](C)O1 [Adriamycin],"Survival of BCL1 leukemia-bearing mice, single agent",BCL1 leukemia,did not induce increased survival
same,Interaction of MJ with drug (cytotoxicity vs expected additivity),[1]; adriamycin 10 and 25 ng/ml + 0.1 mM MJ,cooperation
same,Interaction of MJ with drug (cytotoxicity vs expected additivity),[1]; [9],additive effect
same,Cooperative effect of combination of MJ and chemotherapeutic drug,[1],+
"O=NN(CCCl)C(=O)NCCCl [BCNU, 1,3-bis{2-Chloroethyl}-1-nitroso-urea]",Interaction of MJ with drug (cytotoxicity vs expected additivity),"[1]; BCNU 2.5 and 5 μg/ml + 0.1 mM MJ, pV<0.05",cooperation
same,Interaction of MJ with drug (cytotoxicity vs expected additivity),[1]; [9],additive effect
same,Cooperative effect of combination of MJ and chemotherapeutic drug,[1],+
same,IC50,"[5]; MIA PaCa-2, read-out: IC50 of BCNU by itself",> 25 µg/mL
same,IC50,"[5]; MIA PaCa-2, read-out: IC50 of BCNU in the combination with MJ",< 1 µg/mL
same,Cooperative effect of combination of MJ and chemotherapeutic drug,[5],+
same,Interaction of MJ with drug (cytotoxicity vs expected additivity),"[5]; MIA PaCa-2, BCNU at all concentrations tested (1-25 μg/ml) + 1 mM MJ",strong cooperative effects
CC(=O)O[C@H]1C(=O)[C@@]2(C)[C@H]([C@H](OC(=O)c3ccccc3)[C@]3(O)C[C@H](OC(=O)[C@H](O)[C@@H](NC(=O)c4ccccc4)c4ccccc4)C(C)=C1C3(C)C)[C@]1(OC(C)=O)CO[C@@H]1C[C@@H]2O [Taxol],Interaction of MJ with drug (cytotoxicity vs expected additivity),[1]; drug + 0.1 mM MJ,No cooperative effect
same,IC50,"[3]; drug alone, read-out: IC 50 of taxol",38 µg/mL
same,IC50,"[3]; with 1 mM MJ, read-out: IC 50 of taxol by combined treatment with MJ",2 µg/mL
same,Combined effect of taxol with MJ vs expected additivity,"[3]; TRAMP C1, taxol at all concentrations tested (1-50 μg/ml) + 1 mM MJ",significantly higher than the expected additivity
same,Cooperative effect of combination of MJ and chemotherapeutic drug,[3],+
same,Cooperative effect of combination of MJ and chemotherapeutic drug,"[6]; DA-3 cells, drug combined with fixed concentration of MJ, cooperative = pV<0.05 vs expected additivity",+
same,IC50,"[6]; DA-3, read-out: IC50 of taxol alone",9 µg/mL
same,IC50,"[6]; DA-3, read-out: IC50 of taxol in combination with MJ",2.5 µg/mL
same,Interaction of MJ with drug (cytotoxicity vs expected additivity),"[7]; MCF7, taxol 2.5 μg/ml + 1 mM MJ",enhances the cytotoxic capability
same,Interaction of MJ with drug (cytotoxicity vs expected additivity),"[7]; MCF7, taxol at other concentrations + 1 mM MJ",additive
same,Cooperative effect of combination of MJ and chemotherapeutic drug,"[7]; MCF7 cells, drug combined with fixed concentration of MJ, cooperative = pV<0.05 vs expected additivity",+
same,Cooperative effect of combination of MJ and chemotherapeutic drug,"[8]; D122 cells, drug combined with fixed concentration of MJ, cooperative = pV<0.05 vs expected additivity",+
same,IC50,[8]; read-out: IC50 of taxol alone,8.2 µg/mL
same,IC50,[8]; read-out: IC50 of taxol in the presence of MJ,< 1 µg/mL
"N.N.[Cl][Pt][Cl] [Cisplatin, cis Diammineplatinum (II) dichloride]",Cooperative effect of combination of MJ and chemotherapeutic drug,[3],+
same,Cooperative effect of combination of MJ and chemotherapeutic drug,[5],+
"O=CC[C@@H](O)[C@H](O)[C@H](O)CO [2DG, 2-Deoxy-D-glucose]",Effect of 2DG on cytotoxicity of MJ,"[4]; CT26, 2DG 0.5 mM, each MJ concentration, pV<0.05",significantly enhanced
same,Effect of 2DG on cytotoxicity of MJ,"[6]; DA-3, 2DG 0.5 mM with MJ",No cooperative effect
same,Effect of 2DG on cytotoxicity of MJ,"[7]; MCF7, 2DG 0.5 mM, other MJ concentrations",additive
same,Effect of 2DG on cytotoxicity of MJ,"[8]; D122, 2DG 0.5 mM, each MJ concentration, pV<0.05",significantly enhanced
